ChEMBL document CHEMBL1201862, “PubChem BioAssay data set” (2004)
Calls of active or inactive are those of the source.

Columns and labels:
Cytochrome P450 3A4 = Cytochrome P450 3A4 (Homo sapiens, UniProt P08684);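 further: CYP3A4 tested as one member of a cytochrome P450 panel screen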
Cytochrome P450 2C9 = Cytochrome P450 2C9 (Homo sapiens, UniProt P11712)
Paired box protein Pax-8 = Paired box protein Pax-8 (Homo sapiens, UniProt Q06710); assay: inhibitors of PAX8-driven TPO luciferase reporter, dose response, RMG-I cells, cherry-pick (AID 687027); assay type: functional, cell-based;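 further: luciferase reporter driven by Pax8 target thyroperoxidase promoter measured by SteadyGlo luminescence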
[1] = molecular target: T1, Heat shock factor protein 1 (Mus musculus, UniProt P38532); assay: HSF1 potentiators in luciferase reporter cells, confirmation, cell-based, NIH3T3, luminescence, dose retest (AID 435004); assay type: functional;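 further: stress induced by proteasome inhibitor MG132 added 30 min after compound; luciferase reporter driven by HSF1 response element in NIH3T3 cells; actives raise luminescence as potentiators of the MG132 stress response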
T1 sequence (P38532 whole entry): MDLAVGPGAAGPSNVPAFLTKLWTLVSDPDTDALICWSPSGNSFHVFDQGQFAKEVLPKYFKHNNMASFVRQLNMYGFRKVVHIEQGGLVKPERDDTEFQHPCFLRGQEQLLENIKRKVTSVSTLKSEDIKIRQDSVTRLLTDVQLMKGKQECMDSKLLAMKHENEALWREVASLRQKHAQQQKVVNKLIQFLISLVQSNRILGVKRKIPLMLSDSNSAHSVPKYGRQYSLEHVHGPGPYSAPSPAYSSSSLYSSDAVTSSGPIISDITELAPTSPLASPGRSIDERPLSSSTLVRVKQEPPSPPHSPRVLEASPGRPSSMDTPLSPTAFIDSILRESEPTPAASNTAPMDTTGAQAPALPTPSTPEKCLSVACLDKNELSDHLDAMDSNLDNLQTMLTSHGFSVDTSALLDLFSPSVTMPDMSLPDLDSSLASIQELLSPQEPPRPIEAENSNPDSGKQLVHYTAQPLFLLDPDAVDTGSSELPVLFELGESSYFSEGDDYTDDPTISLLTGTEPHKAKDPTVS

Fatty acid synthase [2] = molecular target: T2, Fatty acid synthase (Homo sapiens, UniProt P49327); assay: FAS thioesterase domain inhibitors, dose response, biochemical, endpoint fluorescence intensity, uHTS hits (AID 624327); assay type: functional;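 further: fluorescence from hydrolysis of an O-methyl fluorescein acyl ester substrate by the enzyme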
Fatty acid synthase [3] = molecular target: T2, Fatty acid synthase; assay: FAS thioesterase domain inhibitors, dose response, biochemical, kinetic fluorescence intensity (AID 624326); assay type: functional;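 further: rate of fluorescence rise from hydrolysis of a fluorogenic O-methyl fluorescein ester substrate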
[4] = system: Streptococcus sp. 'group A'; assay: growth inhibition of control SK(-) GAS strain, dose response, counter-screen for streptokinase expression inhibitor project, luminescence, kanamycin, BacTiterGlo, confirmation (AID 1900); assay type: functional, organism-based
Streptokinase A = molecular target: T3, Streptokinase A (Streptococcus pyogenes serotype M1, UniProt P10520); assay: S. pyogenes streptokinase expression inhibitors, potency, dose response, plasminogen activation absorbance, OD405 (AID 1914); assay type: functional, Streptococcus pyogenes M1 GAS;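 further: secreted streptokinase activity via plasminogen activation per viability signal from cell pellet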
T3 sequence (P10520 whole entry): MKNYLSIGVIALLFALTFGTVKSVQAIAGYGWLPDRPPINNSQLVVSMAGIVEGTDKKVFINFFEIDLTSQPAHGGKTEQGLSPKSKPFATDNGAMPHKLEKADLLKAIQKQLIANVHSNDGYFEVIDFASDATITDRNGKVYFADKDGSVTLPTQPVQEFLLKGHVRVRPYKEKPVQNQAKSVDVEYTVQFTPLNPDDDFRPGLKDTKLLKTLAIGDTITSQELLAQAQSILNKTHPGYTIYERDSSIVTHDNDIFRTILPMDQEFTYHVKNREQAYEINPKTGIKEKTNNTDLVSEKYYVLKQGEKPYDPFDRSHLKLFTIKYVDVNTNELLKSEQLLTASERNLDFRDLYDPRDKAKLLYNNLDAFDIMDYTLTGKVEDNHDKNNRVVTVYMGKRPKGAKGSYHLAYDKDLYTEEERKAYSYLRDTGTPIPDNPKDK

Streptococcus = assay: Group A Streptococcus viability loss, dose response, counter-screen for streptokinase expression inhibitor project, luminescence, BacTiterGlo (AID 1915); assay type: functional, organism-based;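 further: potency for reduction of bacterial viability or growth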
[5] = THP-1 cell cytotoxicity, dose response, cytotoxicity control for non-replicating M. tuberculosis project (AID 489025); assay type: functional
cells = assay type: functional
[6] = molecular target: T4, Calpain-2 catalytic subunit (Sus scrofa, UniProt P43367); assay: pig calpain II inhibitor potency, dose response, biochemical, fluorogenic peptide substrate (AID 1420); assay type: functional
T4 sequence (P43367 whole entry): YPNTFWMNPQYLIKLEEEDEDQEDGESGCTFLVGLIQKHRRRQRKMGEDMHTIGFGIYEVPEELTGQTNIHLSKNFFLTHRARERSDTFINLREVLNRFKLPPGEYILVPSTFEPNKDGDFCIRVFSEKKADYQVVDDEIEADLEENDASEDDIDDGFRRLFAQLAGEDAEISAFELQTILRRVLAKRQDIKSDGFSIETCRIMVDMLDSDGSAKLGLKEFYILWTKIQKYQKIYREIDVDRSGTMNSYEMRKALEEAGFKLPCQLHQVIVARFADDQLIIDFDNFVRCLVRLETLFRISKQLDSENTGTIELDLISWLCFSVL

Cytochrome P450 1A2 = molecular target: T5, Cytochrome P450 1A2 (Homo sapiens, UniProt P05177);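 further: PubChem cytochrome P450 panel assay, CYP1A2 panel member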
T5 sequence (P05177 whole entry): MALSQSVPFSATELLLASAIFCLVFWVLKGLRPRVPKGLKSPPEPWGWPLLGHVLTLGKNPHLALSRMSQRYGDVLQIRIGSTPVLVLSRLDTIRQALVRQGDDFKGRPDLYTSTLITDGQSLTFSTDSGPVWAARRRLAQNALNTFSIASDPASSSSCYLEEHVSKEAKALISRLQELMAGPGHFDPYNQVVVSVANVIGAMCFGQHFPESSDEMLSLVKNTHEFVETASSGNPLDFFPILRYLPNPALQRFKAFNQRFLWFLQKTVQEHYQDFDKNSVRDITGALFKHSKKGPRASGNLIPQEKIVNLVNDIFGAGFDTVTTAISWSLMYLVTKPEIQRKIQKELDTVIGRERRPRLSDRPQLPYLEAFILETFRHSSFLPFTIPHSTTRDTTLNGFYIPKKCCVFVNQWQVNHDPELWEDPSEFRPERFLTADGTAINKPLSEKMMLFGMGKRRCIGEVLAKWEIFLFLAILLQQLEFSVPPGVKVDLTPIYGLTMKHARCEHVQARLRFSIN

Protein skinhead-1 = molecular target: T6, Protein skinhead-1 (Caenorhabditis elegans, UniProt P34707); assay type: functional
T6 sequence (P34707 whole entry): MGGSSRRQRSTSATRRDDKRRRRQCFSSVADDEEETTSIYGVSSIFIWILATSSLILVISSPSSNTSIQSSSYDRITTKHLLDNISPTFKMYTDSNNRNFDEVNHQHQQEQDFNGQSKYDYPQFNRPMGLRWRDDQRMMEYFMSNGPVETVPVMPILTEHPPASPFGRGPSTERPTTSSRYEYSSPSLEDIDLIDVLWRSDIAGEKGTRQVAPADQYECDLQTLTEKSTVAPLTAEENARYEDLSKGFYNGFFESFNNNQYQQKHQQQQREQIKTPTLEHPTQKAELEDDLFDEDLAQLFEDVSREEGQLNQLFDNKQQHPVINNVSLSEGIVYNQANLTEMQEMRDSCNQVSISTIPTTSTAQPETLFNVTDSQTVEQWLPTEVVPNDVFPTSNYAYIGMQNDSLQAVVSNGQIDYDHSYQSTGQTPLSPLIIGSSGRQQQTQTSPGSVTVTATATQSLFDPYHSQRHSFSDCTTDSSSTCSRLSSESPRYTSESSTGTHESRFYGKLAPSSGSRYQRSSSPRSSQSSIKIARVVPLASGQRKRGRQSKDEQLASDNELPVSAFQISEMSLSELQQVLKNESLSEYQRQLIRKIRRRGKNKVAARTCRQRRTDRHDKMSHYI

[7] = molecular target: T7, Corticotropin-releasing factor receptor 2/Corticotropin-releasing factor-binding protein (Homo sapiens, UniProt P24387+Q13324); assay: Dose Response confirmation of uHTS hits for small molecule antagonists of the CRF-binding protein and CRF-R2 receptor complex.; assay type: functional; details: read-out: IC50_Mean
T7 sequence (Q13324 whole entry): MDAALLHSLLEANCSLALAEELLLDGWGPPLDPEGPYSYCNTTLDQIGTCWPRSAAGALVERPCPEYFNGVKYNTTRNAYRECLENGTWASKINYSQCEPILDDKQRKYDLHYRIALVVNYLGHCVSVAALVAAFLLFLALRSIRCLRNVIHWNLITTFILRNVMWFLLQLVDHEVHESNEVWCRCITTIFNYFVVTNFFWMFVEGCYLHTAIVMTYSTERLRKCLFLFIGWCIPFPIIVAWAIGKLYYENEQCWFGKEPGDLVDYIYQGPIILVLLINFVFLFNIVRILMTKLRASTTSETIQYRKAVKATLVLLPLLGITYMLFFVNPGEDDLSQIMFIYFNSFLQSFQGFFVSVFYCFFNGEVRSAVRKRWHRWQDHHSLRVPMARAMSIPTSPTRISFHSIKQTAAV
T7 sequence (P24387 whole entry): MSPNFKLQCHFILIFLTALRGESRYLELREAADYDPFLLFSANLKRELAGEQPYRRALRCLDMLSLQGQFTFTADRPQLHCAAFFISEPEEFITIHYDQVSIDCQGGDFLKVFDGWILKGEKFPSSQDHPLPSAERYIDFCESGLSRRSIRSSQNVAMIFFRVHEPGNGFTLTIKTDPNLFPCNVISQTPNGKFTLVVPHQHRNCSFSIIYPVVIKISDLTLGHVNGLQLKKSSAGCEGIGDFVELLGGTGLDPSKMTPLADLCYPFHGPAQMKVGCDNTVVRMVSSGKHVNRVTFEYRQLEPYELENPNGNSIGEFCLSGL

[8] = molecular target: T7, Corticotropin-releasing factor receptor 2/Corticotropin-releasing factor-binding protein; assay: activators of CRF receptor 2 with binding protein – uHTS hits, confirmation (AID 602473); assay type: functional; details: read-out: EC50_Mean
Cytochrome P450 2C19 = Cytochrome P450 2C19 (Homo sapiens, UniProt P33261); assay: Cytochrome panel assay with activity outcomes. Panel member name: p450-cyp2c19 Compounds with AC50 equal or less than 10 uM are considered active; assay type: functional; details: read-out: AC50
Chain of Cytochrome P450 2C19 (P33261 whole entry): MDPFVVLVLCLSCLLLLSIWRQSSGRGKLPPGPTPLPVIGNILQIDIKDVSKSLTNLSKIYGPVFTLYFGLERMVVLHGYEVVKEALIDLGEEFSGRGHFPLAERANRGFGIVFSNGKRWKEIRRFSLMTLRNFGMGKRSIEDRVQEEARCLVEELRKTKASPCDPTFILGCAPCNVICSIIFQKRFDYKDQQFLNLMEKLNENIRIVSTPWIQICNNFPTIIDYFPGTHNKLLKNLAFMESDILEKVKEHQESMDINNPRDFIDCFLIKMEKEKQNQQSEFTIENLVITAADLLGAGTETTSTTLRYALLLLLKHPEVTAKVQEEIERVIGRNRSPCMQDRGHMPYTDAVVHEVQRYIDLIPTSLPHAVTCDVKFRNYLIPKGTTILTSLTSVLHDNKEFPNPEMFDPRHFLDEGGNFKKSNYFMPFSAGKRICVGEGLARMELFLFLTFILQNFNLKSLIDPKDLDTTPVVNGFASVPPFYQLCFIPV

T2 sequence (P49327 whole entry, the tested form may be a part): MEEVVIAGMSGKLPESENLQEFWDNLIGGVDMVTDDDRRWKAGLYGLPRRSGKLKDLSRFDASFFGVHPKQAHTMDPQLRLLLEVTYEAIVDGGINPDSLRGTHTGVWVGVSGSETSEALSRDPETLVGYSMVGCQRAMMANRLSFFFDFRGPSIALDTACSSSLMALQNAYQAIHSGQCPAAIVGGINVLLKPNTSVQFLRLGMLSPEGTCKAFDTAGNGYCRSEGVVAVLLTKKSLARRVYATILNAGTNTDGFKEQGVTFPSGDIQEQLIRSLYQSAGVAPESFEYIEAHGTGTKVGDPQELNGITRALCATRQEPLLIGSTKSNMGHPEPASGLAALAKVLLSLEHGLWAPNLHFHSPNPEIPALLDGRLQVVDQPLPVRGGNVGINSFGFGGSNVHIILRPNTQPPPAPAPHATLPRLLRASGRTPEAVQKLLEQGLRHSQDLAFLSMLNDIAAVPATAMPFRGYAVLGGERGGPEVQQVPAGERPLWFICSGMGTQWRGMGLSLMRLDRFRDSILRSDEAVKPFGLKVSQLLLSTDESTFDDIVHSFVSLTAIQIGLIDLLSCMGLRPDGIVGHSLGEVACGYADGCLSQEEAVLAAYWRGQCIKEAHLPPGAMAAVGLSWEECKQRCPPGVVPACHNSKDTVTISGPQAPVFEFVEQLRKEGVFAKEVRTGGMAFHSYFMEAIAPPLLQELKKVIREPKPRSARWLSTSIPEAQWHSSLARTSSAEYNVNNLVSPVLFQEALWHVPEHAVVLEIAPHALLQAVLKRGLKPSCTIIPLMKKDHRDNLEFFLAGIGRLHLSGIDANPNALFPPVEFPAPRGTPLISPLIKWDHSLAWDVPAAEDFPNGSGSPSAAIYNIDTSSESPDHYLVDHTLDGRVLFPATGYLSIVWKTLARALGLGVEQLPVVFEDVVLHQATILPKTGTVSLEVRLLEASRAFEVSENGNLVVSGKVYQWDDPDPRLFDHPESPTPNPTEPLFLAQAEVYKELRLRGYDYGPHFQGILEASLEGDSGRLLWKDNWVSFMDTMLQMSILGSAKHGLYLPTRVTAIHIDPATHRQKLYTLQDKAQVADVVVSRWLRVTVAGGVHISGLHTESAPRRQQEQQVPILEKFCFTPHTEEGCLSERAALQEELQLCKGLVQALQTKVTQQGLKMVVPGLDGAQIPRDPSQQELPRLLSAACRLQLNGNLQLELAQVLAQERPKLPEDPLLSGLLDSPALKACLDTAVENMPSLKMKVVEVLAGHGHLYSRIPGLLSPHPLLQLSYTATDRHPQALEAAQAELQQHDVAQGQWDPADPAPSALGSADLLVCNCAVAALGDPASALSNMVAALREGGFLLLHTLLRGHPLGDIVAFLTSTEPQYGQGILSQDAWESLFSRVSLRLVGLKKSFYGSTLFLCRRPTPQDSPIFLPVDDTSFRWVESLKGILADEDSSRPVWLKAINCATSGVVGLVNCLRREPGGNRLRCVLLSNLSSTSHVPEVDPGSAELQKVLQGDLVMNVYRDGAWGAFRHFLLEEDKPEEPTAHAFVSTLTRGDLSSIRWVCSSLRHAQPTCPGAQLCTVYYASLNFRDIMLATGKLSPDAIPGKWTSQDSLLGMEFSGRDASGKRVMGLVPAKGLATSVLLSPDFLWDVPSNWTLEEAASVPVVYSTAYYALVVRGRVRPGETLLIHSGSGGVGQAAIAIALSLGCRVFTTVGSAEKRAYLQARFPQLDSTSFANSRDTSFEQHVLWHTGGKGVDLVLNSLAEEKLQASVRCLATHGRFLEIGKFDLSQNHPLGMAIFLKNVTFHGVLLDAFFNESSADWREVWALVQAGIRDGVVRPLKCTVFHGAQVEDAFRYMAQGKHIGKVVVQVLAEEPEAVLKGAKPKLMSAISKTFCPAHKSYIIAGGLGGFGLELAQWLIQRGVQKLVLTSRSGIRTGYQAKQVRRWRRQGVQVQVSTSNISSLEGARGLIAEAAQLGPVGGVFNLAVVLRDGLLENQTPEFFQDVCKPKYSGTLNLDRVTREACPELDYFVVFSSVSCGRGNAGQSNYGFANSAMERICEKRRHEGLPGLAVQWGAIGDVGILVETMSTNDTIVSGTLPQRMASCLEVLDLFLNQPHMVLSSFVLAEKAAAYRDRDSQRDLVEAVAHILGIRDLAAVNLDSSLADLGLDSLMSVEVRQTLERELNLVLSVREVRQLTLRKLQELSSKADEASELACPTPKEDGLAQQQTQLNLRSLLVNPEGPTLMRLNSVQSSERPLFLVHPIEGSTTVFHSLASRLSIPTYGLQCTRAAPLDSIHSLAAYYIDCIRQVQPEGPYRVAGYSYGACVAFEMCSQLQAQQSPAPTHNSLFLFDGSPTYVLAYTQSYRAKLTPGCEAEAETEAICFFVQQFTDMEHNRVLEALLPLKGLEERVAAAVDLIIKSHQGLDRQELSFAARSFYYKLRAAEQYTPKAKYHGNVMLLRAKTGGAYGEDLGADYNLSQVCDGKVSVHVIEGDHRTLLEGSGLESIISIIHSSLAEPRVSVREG
Chain of Cytochrome P450 2C9 (P11712 whole entry): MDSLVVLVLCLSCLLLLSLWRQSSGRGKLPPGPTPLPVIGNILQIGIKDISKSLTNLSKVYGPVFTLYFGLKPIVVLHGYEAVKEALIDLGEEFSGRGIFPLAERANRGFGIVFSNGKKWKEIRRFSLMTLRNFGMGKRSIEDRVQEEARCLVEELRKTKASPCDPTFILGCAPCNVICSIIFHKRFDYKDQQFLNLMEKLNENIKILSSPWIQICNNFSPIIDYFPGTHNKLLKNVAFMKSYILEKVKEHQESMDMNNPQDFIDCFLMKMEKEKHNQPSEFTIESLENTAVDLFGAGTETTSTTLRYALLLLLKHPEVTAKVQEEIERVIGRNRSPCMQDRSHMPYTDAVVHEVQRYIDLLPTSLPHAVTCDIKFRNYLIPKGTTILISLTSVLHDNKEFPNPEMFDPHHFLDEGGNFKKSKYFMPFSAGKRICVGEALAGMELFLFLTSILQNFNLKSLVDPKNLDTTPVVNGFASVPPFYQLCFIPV
Chain of Paired box protein Pax-8 (Q06710 whole entry): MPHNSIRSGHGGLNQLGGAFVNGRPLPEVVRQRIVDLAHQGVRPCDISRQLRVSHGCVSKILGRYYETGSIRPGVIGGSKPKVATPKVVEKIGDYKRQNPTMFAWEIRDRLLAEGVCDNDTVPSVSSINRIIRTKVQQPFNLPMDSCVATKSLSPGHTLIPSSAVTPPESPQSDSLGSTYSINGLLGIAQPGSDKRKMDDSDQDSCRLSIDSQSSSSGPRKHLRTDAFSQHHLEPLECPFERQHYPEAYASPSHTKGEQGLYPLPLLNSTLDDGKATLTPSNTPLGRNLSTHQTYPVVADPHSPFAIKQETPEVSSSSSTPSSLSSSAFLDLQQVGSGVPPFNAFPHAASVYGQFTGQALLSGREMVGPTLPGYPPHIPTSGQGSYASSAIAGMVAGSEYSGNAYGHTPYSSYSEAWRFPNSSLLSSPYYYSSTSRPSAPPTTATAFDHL
Chain of Cytochrome P450 3A4 (P08684 whole entry): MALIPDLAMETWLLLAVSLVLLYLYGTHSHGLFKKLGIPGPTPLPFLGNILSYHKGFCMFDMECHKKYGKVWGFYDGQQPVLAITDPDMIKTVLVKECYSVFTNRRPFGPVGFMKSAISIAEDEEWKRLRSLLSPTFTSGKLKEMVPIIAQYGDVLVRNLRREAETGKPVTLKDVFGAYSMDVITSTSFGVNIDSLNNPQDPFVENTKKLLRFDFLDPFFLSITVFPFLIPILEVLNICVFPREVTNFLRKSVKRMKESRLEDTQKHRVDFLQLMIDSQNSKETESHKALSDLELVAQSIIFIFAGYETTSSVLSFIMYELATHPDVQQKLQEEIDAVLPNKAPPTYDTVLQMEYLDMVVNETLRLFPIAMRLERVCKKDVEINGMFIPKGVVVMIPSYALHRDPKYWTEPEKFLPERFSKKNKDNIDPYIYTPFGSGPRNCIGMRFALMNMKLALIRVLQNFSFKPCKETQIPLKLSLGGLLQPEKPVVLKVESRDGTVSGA

Cc1cccc(CNc2ccnc(-c3ccccc3CN(C)C)n2)c1
AC50 (Cytochrome P450 3A4): 3.98 µM (inconclusive)
AC50 (Cytochrome P450 2C9): inconclusive

Cc1cc(C)n(C(=O)c2cc3ccccc3c(=O)o2)n1
AC50 (Cytochrome P450 2C9): inconclusive

C[C@H]1CCCCO[C@@H](CN(C)S(=O)(=O)c2cccs2)[C@@H](C)CN([C@@H](C)CO)C(=O)c2cc(NC(=O)NC3CCCCC3)ccc2O1
AC50 (Paired box protein Pax-8): 4.79 µM (active)

Cc1ccc(S(=O)(=O)N(C)C)cc1NC(S)=NC(C)CCCC(C)C (centres undefined)
EC50 [1]: > 260 µM (inactive)
IC50 (Fatty acid synthase [2]): 12.3 µM (active)
IC50 (Fatty acid synthase [3]): 9.82 µM (active)

CC(C)C1OC(NC(=O)Nc2ccc(Cl)c(Cl)c2)=NC1=O (centres undefined)
EC50 [4]: 2.51 µM (active)
EC50 (Streptokinase A): > 150 µM (not active)
EC50 (Streptococcus): 28.7 µM (active)
CC50 [5]: > 40 µM (active)
IC50 (cells): 18.9 µM (active)

Cc1ccc(NC(=O)c2cccc(N(C)C)c2)cc1NC(=O)c1ccc(O)cc1
AC50 (Cytochrome P450 2C9): inconclusive

C[C@@H]1CCCCO[C@@H](CN(C)C(=O)C2CCCCC2)[C@H](C)CN([C@H](C)CO)C(=O)c2cc(NC(=O)Nc3ccc(F)cc3)ccc2O1
AC50 (Paired box protein Pax-8): 8.22 µM (active)

N#Cc1cccc(-c2ccc3c(c2)[C@@H]2[C@@H](CCN2S(=O)(=O)c2ccc(F)cc2)[C@@H](CO)N3)c1
AC50 (Paired box protein Pax-8): 6.61 µM (active)

CCCCNC(=O)Cc1ccc(C)cc1
CC50 [5]: > 40 µM (active)

Cc1cccc(OCc2nc(C#N)c(NCc3ccc4c(c3)OCO4)o2)c1
IC50 [6]: 6.8 µM (not active)

c1ccc(Oc2ccc(-c3ccnc4ncnn34)cc2)cc1
IC50 [6]: 11.5 µM (active)

CCc1cccc2c(C=C(C#N)C#N)cn(CC(=O)N3CCCC3)c12
AC50 (Cytochrome P450 2C9): inconclusive

COc1ccccc1Nc1nc(Cl)c(C=O)s1
IC50 [6]: > 50 µM (not active)

Cc1cc2ncn(-c3ncnc4sc5c(c34)CCC(C)C5)c2cc1C (centres undefined)
IC50 [6]: 19.2 µM (not active)

C/C(=N\NC(=O)COc1ccc(C)cc1Br)c1cc([N+](=O)[O-])cs1
CC50 [5]: > 40 µM (active)
IC50 (cells): 34.1 µM (active)

O=C(CNC(=O)c1cccs1)NCC(=O)OCc1ccc(Cl)cc1Cl
AC50 (Cytochrome P450 1A2): 10 µM (inconclusive)
AC50 (Cytochrome P450 2C9): inconclusive

C[C@H](CO)N1C[C@H](C)[C@H](CN(C)Cc2ccc(Cl)c(Cl)c2)OCCCC[C@H](C)Oc2ccc(NC(=O)Nc3ccccc3)cc2C1=O
AC50 (Paired box protein Pax-8): 11.9 µM (active)

CN1/C(=C\C(=O)CSc2nnc(NCc3ccccc3)s2)C(C)(C)c2ccccc21
IC50 [6]: 4.01 µM (not active)
IC50 (Protein skinhead-1): > 100 µM (inactive)

COC(=O)C1CCN(C(=O)COC(=O)c2cc([N+](=O)[O-])ccc2N2CCOCC2)CC1
IC50 [7]: > 47.1 µM (inactive)
EC50 [8]: > 53 µM (inactive)
IC50 (Fatty acid synthase [2]): 5.73 µM (active)
IC50 (Fatty acid synthase [3]): 3.96 µM (active)

CCOC(=O)c1cnc(-n2nc(C)cc2C)nc1Nc1ccc(OC)cc1
EC50 [4]: 6.33 µM (active)
EC50 (Streptokinase A): > 150 µM (not active)
IC50 [6]: < 0.4 µM (not active)
EC50 (Streptococcus): > 150 µM (not active)

CN1CCCN(S(=O)(=O)c2ccc3c(c2)OCCO3)CC1
AC50 (Cytochrome P450 2C19): 25.1 µM (inconclusive)
AC50 (Cytochrome P450 2C9): inconclusive

O=C(Nc1ccccc1Cl)c1ccccc1Cl
AC50 (Cytochrome P450 2C9): inconclusive
